Measurements from patent publication US20230382949A1 (HEPTARES THERAPEUTICS LIMITED, priority 2020, published 2023).
Like-named read-outs stand apart in the source and are kept apart here. Starred links: 1 amine or outer side, 2 acyl side, 3 side chain; linkers in the order of their positions; H or OH if unused. Non-standard residues stand in square brackets, D forms with d. Residues, ends and D or L forms follow the SMILES beside them. *: point of attachment. Ala(piperidin-4-yl) = O=C([C@H](CC1CCN([*:3])CC1)N[*:1])[*:2]; Malonyl(2,2-Me2,histaminyl) = CC(C)(C(=O)NCCc1cnc[nH]1)C(=O)*; dBip = N[C@H](Cc1ccc(-c2ccccc2)cc1)C(=O)O; Oic = O=C(O)[C@@H]1C[C@@H]2CCCC[C@@H]2N1; Phe(4-Br) = N[C@@H](Cc1ccc(Br)cc1)C(=O)O; X2 = COCCOCCOCCOCCOCCNC(=O)C(C)(C)C(=O)*; X3 = CC(C)(C(=O)NCCc1ccccn1)C(=O)*; Ser(ΨH,HPro) = O=C(O)[C@@H]1COCN1; hArg = N=C(N)NCCCC[C@H](N)C(=O)O; hPhe = N[C@@H](CCc1ccccc1)C(=O)O; tBuAla = CC(C)(C)C[C@H](N)C(=O)O; 3Pal = N[C@@H](Cc1cccnc1)C(=O)O; Cba = N[C@@H](CC1CCC1)C(=O)O; Pip = O=C(O)[C@@H]1CCCCN1; Aib = CC(C)(N)C(=O)O

What was measured:
human Apelin receptor [1] = biological target: T1, human Apelin receptor (Homo sapiens, UniProt P35414); test: cAMP accumulation assay (HTRF), functional agonism of human Apelin receptors; type: cell-based; conditions: for Emax: CHO
T1 sequence (P35414 1-380): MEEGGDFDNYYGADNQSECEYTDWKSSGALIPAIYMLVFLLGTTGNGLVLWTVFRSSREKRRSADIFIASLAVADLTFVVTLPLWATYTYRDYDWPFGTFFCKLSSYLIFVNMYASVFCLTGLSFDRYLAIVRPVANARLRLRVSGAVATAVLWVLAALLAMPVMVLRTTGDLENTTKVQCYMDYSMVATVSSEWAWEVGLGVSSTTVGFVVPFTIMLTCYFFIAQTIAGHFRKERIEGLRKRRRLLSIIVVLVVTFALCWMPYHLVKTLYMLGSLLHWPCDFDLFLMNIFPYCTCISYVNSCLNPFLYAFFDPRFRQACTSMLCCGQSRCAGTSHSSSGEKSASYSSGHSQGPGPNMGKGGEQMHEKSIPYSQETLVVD
Excerpt: cAMP functional assay. cAMP production was quantified using the Homogeneous Time-Resolved Fluorescence (HTRF) cAMP dynamic-2 assay (Cisbio, France).

human Apelin receptor [2] = biological target: T2, human Apelin receptor (Homo sapiens, UniProt P35414); test: β-arrestin accumulation assay, functional agonism of human Apelin receptors; type: cell-based
T2 construct: host or cells: CHO-K1 cells
Protocol: β-arrestin assay. […] After 16 h incubation at 37° C. media was removed and cells were incubated at 37° C. for 90 min in serum free media containing increasing concentrations of test agonist. The assay reaction was stopped by adding detection reagent (DiscoveRx) and incubation for 60 min in the dark. Levels of receptor activation were then measured on a PheraStar fluorescence plate reader (BMG LabTech) and EC50 values were determined using Graphpad Prism.
T2 sequence (P32121 whole entry partner, one chain of several): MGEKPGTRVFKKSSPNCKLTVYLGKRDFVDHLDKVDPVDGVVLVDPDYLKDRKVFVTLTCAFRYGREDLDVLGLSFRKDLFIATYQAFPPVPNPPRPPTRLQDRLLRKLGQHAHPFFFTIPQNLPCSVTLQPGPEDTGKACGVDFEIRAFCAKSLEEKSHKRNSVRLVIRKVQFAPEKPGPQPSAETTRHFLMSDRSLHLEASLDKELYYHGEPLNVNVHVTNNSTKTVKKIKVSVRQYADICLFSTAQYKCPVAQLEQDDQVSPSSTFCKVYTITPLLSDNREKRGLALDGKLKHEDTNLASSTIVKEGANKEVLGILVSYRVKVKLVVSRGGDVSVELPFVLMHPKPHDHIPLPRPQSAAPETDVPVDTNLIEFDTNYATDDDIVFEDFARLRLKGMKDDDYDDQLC

[3] = Human Apelin agonist cAMP assay, CHO cells stably expressing the human Apelin receptor, 3 uM forskolin
[4] = pEC50, Human Apelin agonist cAMP assay, CHO cells stably expressing the human Apelin receptor, 3 uM forskolin

Row | SMILES | Emax (human Apelin receptor [1]; [3]) | EC50 (human Apelin receptor [1]; [4]) | EC50 (human Apelin receptor [2]) | Emax (human Apelin receptor [1]; read-out: Emax) | EC50 (human Apelin receptor [1]; read-out: pEC50 (converted))
1 | CC(C)C[C@H](NC(=O)[C@@H](CCCNC(=N)N)NC(=O)[C@@H]1CCCN1C(=O)[C@H](CCCCNC(=N)N)NC(=O)[C@H](CCC(N)=O)NC(=O)[C@@H](CCCNC(=N)N)NC(=O)C(C)(C)C(=O)NCCc1ccccn1)C(=O)NC(C)(C)C(=O)N[C@@H](Cc1c[nH]cn1)C(=O)N[C@@H](CC1CCNCC1)C(=O)NCC(=O)N1[C@H](C(=O)N[C@@H](Cc2ccc(Br)cc2)C(=O)N2CCC[C@H]2C(=O)N[C@H](Cc2ccc(-c3ccccc3)cc2)C(=O)O)C[C@@H]2CCCC[C@@H]21 [Example 6] (X3-[dR]Q[hArg]P[dR]L[Aib]H[Ala(piperidin-4-yl)]G[Oic][Phe(4-Br)]P[dBip]-OH) | 53.9% | 20 nM | > 10000 nM | – | –
2 | COCCOCCOCCOCCOCCNC(=O)C(C)(C)C(=O)N[C@H](CCCNC(=N)N)C(=O)N[C@@H](CCC(N)=O)C(=O)N[C@@H](CCCCNC(=N)N)C(=O)N1CCC[C@H]1C(=O)N[C@H](CCCNC(=N)N)C(=O)N[C@@H](CC(C)C)C(=O)NC(C)(C)C(=O)N[C@@H](Cc1c[nH]cn1)C(=O)N[C@@H](CC1CCNCC1)C(=O)NCC(=O)N1[C@H](C(=O)N[C@@H](Cc2ccc(Br)cc2)C(=O)N2CCC[C@H]2C(=O)N[C@H](Cc2ccc(-c3ccccc3)cc2)C(=O)O)C[C@@H]2CCCC[C@@H]21 [Example 7] (X2-[dR]Q[hArg]P[dR]L[Aib]H[Ala(piperidin-4-yl)]G[Oic][Phe(4-Br)]P[dBip]-OH) | – | – | > 10000 nM | 59.2% | 20 nM
3 | CC(C)C[C@H](NC(=O)[C@@H](CCCNC(=N)N)NC(=O)[C@@H]1CCCN1C(=O)[C@H](CCCCNC(=N)N)NC(=O)[C@H](CCc1ccccc1)NC(=O)[C@@H](CCCNC(=N)N)NC(=O)C(C)(C)C(=O)NCCc1c[nH]cn1)C(=O)NC(C)(C)C(=O)N[C@@H](Cc1c[nH]cn1)C(=O)N[C@@H](CC1CCNCC1)C(=O)NCC(=O)N1[C@H](C(=O)N[C@@H](Cc2ccc(Br)cc2)C(=O)N2CCC[C@H]2C(=O)N[C@H](Cc2ccc(-c3ccccc3)cc2)C(=O)O)C[C@@H]2CCCC[C@@H]21 [Example 8] ({Malonyl(2,2-Me2,histaminyl)}-[dR][hPhe][hArg]P[dR]L[Aib]H[Ala(piperidin-4-yl)]G[Oic][Phe(4-Br)]P[dBip]-OH) | 56.1% | 15.8 nM | > 10000 nM | – | –
4 | CC(C)C[C@H](NC(=O)[C@@H](CCCNC(=N)N)NC(=O)[C@@H]1CCCN1C(=O)[C@H](CCCNC(=N)N)NC(=O)[C@H](CCC(N)=O)NC(=O)[C@@H](CCCNC(=N)N)NC(=O)C(C)(C)C(=O)NCCc1c[nH]cn1)C(=O)NC(C)(C)C(=O)N[C@@H](Cc1c[nH]cn1)C(=O)N[C@@H](CC1CCNCC1)C(=O)NCC(=O)N1[C@H](C(=O)N[C@@H](Cc2ccc(Br)cc2)C(=O)N2CCC[C@H]2C(=O)N[C@H](Cc2ccc(-c3ccccc3)cc2)C(=O)O)C[C@@H]2CCCC[C@@H]21 [Example 9] ({Malonyl(2,2-Me2,histaminyl)}-[dR]QRP[dR]L[Aib]H[Ala(piperidin-4-yl)]G[Oic][Phe(4-Br)]P[dBip]-OH) | 86.9% | 6.31 nM | > 10000 nM | – | –
5 | CC(C)C[C@H](NC(=O)[C@@H](CCCNC(=N)N)NC(=O)[C@@H]1C[C@@H]2CCCC[C@@H]2N1C(=O)[C@H](CCCCNC(=N)N)NC(=O)[C@H](CCC(N)=O)NC(=O)[C@@H](CCCNC(=N)N)NC(=O)C(C)(C)C(=O)NCCc1c[nH]cn1)C(=O)NC(C)(C)C(=O)N[C@@H](Cc1c[nH]cn1)C(=O)N[C@@H](CC1CCNCC1)C(=O)NCC(=O)N1[C@H](C(=O)N[C@@H](Cc2ccc(Br)cc2)C(=O)N2CCC[C@H]2C(=O)N[C@H](Cc2ccc(-c3ccccc3)cc2)C(=O)O)C[C@@H]2CCCC[C@@H]21 [Example 10] ({Malonyl(2,2-Me2,histaminyl)}-[dR]Q[hArg][Oic][dR]L[Aib]H[Ala(piperidin-4-yl)]G[Oic][Phe(4-Br)]P[dBip]-OH) | 52.5% | 20 nM | > 10000 nM | – | –
6 | CC(C)C[C@H](NC(=O)[C@@H](CCCNC(=N)N)NC(=O)[C@@H]1COCN1C(=O)[C@H](CCCCNC(=N)N)NC(=O)[C@H](CCC(N)=O)NC(=O)[C@@H](CCCNC(=N)N)NC(=O)C(C)(C)C(=O)NCCc1c[nH]cn1)C(=O)NC(C)(C)C(=O)N[C@@H](Cc1c[nH]cn1)C(=O)N[C@@H](CC1CCNCC1)C(=O)NCC(=O)N1[C@H](C(=O)N[C@@H](Cc2ccc(Br)cc2)C(=O)N2CCC[C@H]2C(=O)N[C@H](Cc2ccc(-c3ccccc3)cc2)C(=O)O)C[C@@H]2CCCC[C@@H]21 [Example 11] ({Malonyl(2,2-Me2,histaminyl)}-[dR]Q[hArg][Ser(ΨH,HPro)][dR]L[Aib]H[Ala(piperidin-4-yl)]G[Oic][Phe(4-Br)]P[dBip]-OH) | 90.6% | 12.6 nM | > 10000 nM | – | –
7 | CC(C)C[C@H](NC(=O)[C@@H](CCCNC(=N)N)NC(=O)[C@@H]1CCCCN1C(=O)[C@H](CCCCNC(=N)N)NC(=O)[C@H](CCC(N)=O)NC(=O)[C@@H](CCCNC(=N)N)NC(=O)C(C)(C)C(=O)NCCc1c[nH]cn1)C(=O)NC(C)(C)C(=O)N[C@@H](Cc1c[nH]cn1)C(=O)N[C@@H](CC1CCNCC1)C(=O)NCC(=O)N1[C@H](C(=O)N[C@@H](Cc2ccc(Br)cc2)C(=O)N2CCC[C@H]2C(=O)N[C@H](Cc2ccc(-c3ccccc3)cc2)C(=O)O)C[C@@H]2CCCC[C@@H]21 [Example 12] ({Malonyl(2,2-Me2,histaminyl)}-[dR]Q[hArg][Pip][dR]L[Aib]H[Ala(piperidin-4-yl)]G[Oic][Phe(4-Br)]P[dBip]-OH) | 98.9% | 7.94 nM | > 10000 nM | – | –
8 | CC(C)(C)C[C@H](NC(=O)[C@@H](CCCNC(=N)N)NC(=O)[C@@H]1CCCN1C(=O)[C@H](CCCCNC(=N)N)NC(=O)[C@H](CCC(N)=O)NC(=O)[C@@H](CCCNC(=N)N)NC(=O)C(C)(C)C(=O)NCCc1c[nH]cn1)C(=O)NC(C)(C)C(=O)N[C@@H](Cc1c[nH]cn1)C(=O)N[C@@H](CC1CCNCC1)C(=O)NCC(=O)N1[C@H](C(=O)N[C@@H](Cc2ccc(Br)cc2)C(=O)N2CCC[C@H]2C(=O)N[C@H](Cc2ccc(-c3ccccc3)cc2)C(=O)O)C[C@@H]2CCCC[C@@H]21 [Example 13] ({Malonyl(2,2-Me2,histaminyl)}-[dR]Q[hArg]P[dR][tBuAla][Aib]H[Ala(piperidin-4-yl)]G[Oic][Phe(4-Br)]P[dBip]-OH) | 72.9% | 25.1 nM | > 10000 nM | – | –
9 | CC(C)(NC(=O)[C@H](CC1CCC1)NC(=O)[C@@H](CCCNC(=N)N)NC(=O)[C@@H]1CCCN1C(=O)[C@H](CCCCNC(=N)N)NC(=O)[C@H](CCC(N)=O)NC(=O)[C@@H](CCCNC(=N)N)NC(=O)C(C)(C)C(=O)NCCc1c[nH]cn1)C(=O)N[C@@H](Cc1c[nH]cn1)C(=O)N[C@@H](CC1CCNCC1)C(=O)NCC(=O)N1[C@H](C(=O)N[C@@H](Cc2ccc(Br)cc2)C(=O)N2CCC[C@H]2C(=O)N[C@H](Cc2ccc(-c3ccccc3)cc2)C(=O)O)C[C@@H]2CCCC[C@@H]21 [Example 14] ({Malonyl(2,2-Me2,histaminyl)}-[dR]Q[hArg]P[dR][Cba][Aib]H[Ala(piperidin-4-yl)]G[Oic][Phe(4-Br)]P[dBip]-OH) | 77% | 7.94 nM | > 10000 nM | – | –
10 | CC(C)C[C@H](NC(=O)[C@@H](CCCNC(=N)N)NC(=O)[C@@H]1CCCN1C(=O)[C@H](CCCCNC(=N)N)NC(=O)[C@H](CCC(N)=O)NC(=O)[C@@H](CCCNC(=N)N)NC(=O)C(C)(C)C(=O)NCCc1c[nH]cn1)C(=O)NC(C)(C)C(=O)N[C@@H](Cc1cccnc1)C(=O)N[C@@H](CC1CCNCC1)C(=O)NCC(=O)N1[C@H](C(=O)N[C@@H](Cc2ccc(Br)cc2)C(=O)N2CCC[C@H]2C(=O)N[C@H](Cc2ccc(-c3ccccc3)cc2)C(=O)O)C[C@@H]2CCCC[C@@H]21 [Example 15] ({Malonyl(2,2-Me2,histaminyl)}-[dR]Q[hArg]P[dR]L[Aib][3Pal][Ala(piperidin-4-yl)]G[Oic][Phe(4-Br)]P[dBip]-OH) | 86.4% | 7.94 nM | > 10000 nM | – | –
11 | CC(C)C[C@H](NC(=O)[C@@H](CCCNC(=N)N)NC(=O)[C@@H]1CCCN1C(=O)[C@H](CCCCNC(=N)N)NC(=O)[C@H](CCC(N)=O)NC(=O)[C@@H](CCCNC(=N)N)NC(=O)C(C)(C)C(=O)NCCc1c[nH]cn1)C(=O)NC(C)(C)C(=O)N[C@@H](Cc1c[nH]cn1)C(=O)N[C@@H](CC1CCNCC1)C(=O)N[C@@H](C)C(=O)N1[C@H](C(=O)N[C@@H](Cc2ccc(Br)cc2)C(=O)N2CCC[C@H]2C(=O)N[C@H](Cc2ccc(-c3ccccc3)cc2)C(=O)O)C[C@@H]2CCCC[C@@H]21 [Example 16] ({Malonyl(2,2-Me2,histaminyl)}-[dR]Q[hArg]P[dR]L[Aib]H[Ala(piperidin-4-yl)]A[Oic][Phe(4-Br)]P[dBip]-OH) | 64.8% | 5.01 nM | > 1000 nM | – | –
